From patent publication US9345247B2, “Azaindole carboxylic acid amides and azaindole thiocarboxylic acid amides for use as insecticides and acaricides” (BAYER CROPSCIENCE AG, priority 2012, dated 2016)

Key:
[1] = tested on: larvae of the mustard beetle (Phaedon cochleariae); experiment: Phaedon cochleariae spray test (PHAECO); type: in vivo
Method: Phaedon cochleariae—Spray Test (PHAECO)
(§1) To produce a suitable preparation of active compound, 1 part by weight of active compound is mixed with the stated amounts of solvent and emulsifier, and the concentrate is diluted with emulsifier-containing water to the desired concentration.
Discs of Chinese cabbage leaves (Brassica pekinensis) are sprayed with an active compound formulation of the desired concentration and, after drying, populated with larvae of the mustard beetle (Phaedon cochleariae).
After 7 days, the efficacy in % is determined. 100% means that all the beetle larvae have been killed; 0% means that no beetle larvae have been killed.
After the stated period of time, the effect in % is determined 100% means that all the beetle larvae have been killed; 0% means that no beetle larvae have been killed.

[2] = tested on: caterpillars of the armyworm (Spodoptera frugiperda); experiment: Spodoptera frugiperda spray test (SPODFR); type: in vivo; details: for efficacy: spray, after 7 days
Method: Spodoptera frugiperda—Spray Test (SPODFR)
(§2) To produce a suitable active compound formulation, 1 part by weight of active compound is mixed with the stated amounts of solvent and emulsifier, and the concentrate is diluted with emulsifier-containing water to the desired concentration.
Leaf discs of maize (Zea mays) are sprayed with an active compound formulation of the desired concentration and, after drying, populated with caterpillars of the armyworm (Spodoptera frugiperda).
After 7 days, the efficacy in % is determined. 100% means that all the caterpillars have been killed; 0% means that no caterpillars have been killed.
as §1
Leaf discs of maize (Zea mays) are sprayed with an active compound preparation of the desired concentration and, after drying, populated with caterpillars of the armyworm (Spodoptera frugiperda).
After the stated period of time, the effect in % is determined. 100% means that all the caterpillars have been killed; 0% means that no caterpillars have been killed.

[3] = log P by HPLC on reversed-phase column (C18), EEC directive 79/831 Annex V.A8; type: physicochemical; details: HPLC, acidic range pH 2.7, 43° C.
Method: a) The determination of the W by LC-MS in the acidic range is effected at pH 2.7, acetonitrile (contains 0.1% formic acid) and water as eluents; linear gradient from 10% acetonitrile to 95% acetonitrile, instrument: Agilent 1100 LC-System, Agilent MSD System, HTS PAL. The log P values reported in the tables and Preparation Examples above were determined in accordance with EEC directive 79/831 Annex V.A8 by HPLC (High Performance Liquid Chromatography) using a reversed-phase column (C18). Temperature 43° C. The calibration is effected with unbranched alkan-2-ones (having 3 to 16 carbon atoms), for which the log P values are known.

[4] = tested on: greenhouse red spider mite (Tetranychus urticae); experiment: Tetranychus urticae spray test, OP-resistant (TETRUR); type: in vivo; details: for efficacy: 100 g/ha, spray, after 6 days
Method: as §2
Discs of bean leaves (Phaseolus vulgaris) infested by all stages of the greenhouse red spider mite (Tetranychus urticae) are sprayed with an active compound formulation of the desired concentration.
After 6 days, the efficacy in % is determined 100% means that all the spider mites have been killed; 0% means that none of the spider mites have been killed. […]

[5] = tested on: Boophilus microplus; experiment: Boophilus microplus test (BOOPMI injection); type: in vivo; details: 20 μg/animal, after 7 days
Method: Boophilus microplus Test (BOOPMI Injection) [table] To produce a suitable active compound formulation, 10 mg of active compound are mixed with 0.5 ml of solvent and the concentrate is diluted with solvent to the desired concentration. The active compound solution is injected into the abdomen (Boophilus microplus), and the animals are transferred into dishes and stored in a climate-controlled room. After 7 days, the efficacy in % is determined. The activity is assessed by laying of fertile eggs. 100% means that none of the ticks has laid any fertile eggs.

[6] = tested on: Ctenocephalides felis; experiment: Ctenocephalides felis; oral (CTECFE); type: in vivo; details: 100 ppm, oral in cattle blood, after 2 days
Method: Ctenocephalides felis; Oral (CTECFE)
To produce a suitable active compound formulation, 10 mg of active compound are mixed with 0.5 ml of dimethyl sulphoxide. A portion of the concentrate is diluted with citrated cattle blood, and the desired concentration is prepared.
About 20 unfed adult fleas (Ctenocephalides felis) are placed into a chamber which is closed at the top and bottom with gauze. A metal cylinder whose bottom end is closed with parafilm is placed onto the chamber. The cylinder contains the blood/active compound preparation, which can be imbibed by the fleas through the parafilm membrane.
After 2 days, the kill in % is determined 100% means that all fleas have been killed; 0% means that none of the fleas have been killed.

[7] = tested on: Lucilia cuprina larvae; experiment: Lucilia cuprina test (LUCICU); type: in vivo; details: 100 ppm, after 2 days
Method: (§3) Lucilia cuprina Test (LUCICU) [table] To produce a suitable active compound formulation, 10 mg of active compound are mixed with 0.5 ml of dimethyl sulfoxide, and the concentrate is diluted with water to the desired concentration. Vessels containing horse meat treated with the active compound formulation of the desired concentration are populated with about 20 Lucilia cuprina larvae. After 2 days, the kill in % is determined 100% means that all the larvae have been killed; 0% means that none of the larvae have been killed.

[8] = tested on: adult Musca domestica; experiment: Musca domestica test (MUSCDO); type: in vivo; details: 100 ppm, after 2 days
Method: as §3, with “Musca domestica” for “Lucilia cuprina”, “(MUSCDO)” for “(LUCICU)”, “a sponge” for “horse meat”, “adult Musca domestica.” for “about 20 Lucilia cuprina larvae.”, “flies” for “the larvae”, “no flies” for “none of the larvae”

Compound | efficacy ([1]; 100 g/ha, spray, after 7 days) | efficacy ([2]; 100 g/ha) | log p [3] | efficacy [4] | other results
CCn1c(C(=O)NC(c2cc(Cl)c(F)c(Cl)c2)C(F)(F)F)cc2cc(C(=O)NC3CC3)c(C)nc21 (centres unmarked) [Compound 72] | 100% | 100% | 4.00 |  | 
CCn1c(C(=O)NC(c2cccc(C(F)(F)F)c2)C(F)(F)F)cc2cc(C(=O)NCc3ccccn3)c(C)nc21 (centres unmarked) [Compound 7] |  |  | 2.99 | 90% | 
CCn1c(C(=O)NC(c2cc(Cl)c(F)c(Cl)c2F)C(F)(F)F)cc2cc(C(=O)NC3(C#N)CC3)c(Cl)nc21 (centres unmarked) [Compound 31] | 100% | 100% | 4.32 |  | 
CCn1c(C(=O)NC(c2cc(Cl)c(F)c(Cl)c2F)C(F)(F)F)cc2cc(C(=O)NC3CC3)c(C)nc21 (centres unmarked) [Compound 71] | 100% | 100% | 4.21 |  | 
CCn1c(C(=O)NC(c2ccc(F)c(Cl)c2)C(F)(F)F)cc2cc(C(=O)NCc3ccccn3)c(Cl)nc21 (centres unmarked) [Compound 58] | 100% |  | 3.17 | 100% | efficacy (laying of fertile eggs) [5]: 100%; efficacy (kill) [6]: 100%; efficacy (kill) [7]: 100%
CCn1c(C(=O)NC(c2cc(Cl)c(F)c(Cl)c2)C(F)(F)F)cc2cc(C(=O)NCc3ccccn3)c(Cl)nc21 (centres unmarked) [Compound 60] | 100% |  | 3.67 | 90% | efficacy (laying of fertile eggs) [5]: 100%; efficacy (kill) [6]: 95%; efficacy (kill) [7]: 100%
CCn1c(C(=O)NC(c2ccc(F)c(Cl)c2)C(F)(F)F)cc2cc(C(=O)NC3CC3)c(C)nc21 (centres unmarked) [Compound 9] |  | 100% | 3.39 |  | efficacy ([1]; 20 g/ha, spray, after 7 days): 100%
CCn1c(C(=O)NC(c2cccc(C(F)(F)F)c2)C(F)(F)F)cc2cc(C(=O)NC3COC3)c(Cl)nc21 (centres unmarked) [Compound 39] | 100% |  | 3.28 | 90% | 
CCn1c(C(=O)NC(c2cccc(C(F)(F)F)c2)C(F)(F)F)cc2cc(C(=O)NCC#N)c(Cl)cc21 (centres unmarked) [reference compound] |  |  |  |  | Emax at 100 g/ha ([4]; Tetranychus urticae, 144 h, TETRUR, 100 g of ai/ha, 6 d, read-out: % Efficacy dat): 0%
CCn1c(C(=O)NC(c2cc(Cl)cc(Cl)c2)C(F)(F)F)cc2cc(C(=O)NC3CC3)c(Cl)nc21 (centres unmarked) [Compound 28] | 100% | 100% |  |  | efficacy (laying of fertile eggs) [5]: 100%; efficacy (kill) [6]: 95%; efficacy (kill) [7]: 100%; efficacy (kill) [8]: 100%
CCn1c(C(=O)NC(c2ccc(F)c(C(F)(F)F)c2)C(F)(F)F)cc2cc(C(=O)NC3CC3)c(C)nc21 (centres unmarked) [Compound 76] | 100% | 100% | 3.67 | 100% | 
CCn1c(C(=O)NC(c2cccc(C(F)(F)F)c2)C(F)(F)F)cc2cc(C(=O)NC3(C#N)CC3)c(C(F)(F)F)nc21 (centres unmarked) [Compound 74] | 100% | 100% | 3.93 |  | efficacy ([1]; 500 g/ha, spray, after 7 days): 100%; efficacy ([2]; 500 g/ha): 100%
CCn1c(C(=O)NC(c2cccc(C(F)(F)F)c2)C(F)(F)F)cc2cc(C(=O)NCC(F)(F)F)c(Cl)nc21 (centres unmarked) [Compound 41] | 100% | 100% | 4.08 |  | efficacy (laying of fertile eggs) [5]: 100%; efficacy (kill) [6]: 100%; efficacy (kill) [7]: 100%; efficacy (kill) [8]: 100%
CCn1c(C(=O)NC(c2cccc(C(F)(F)F)c2)C(F)(F)F)cc2cc(C(=O)NC3CCC3)c(C)nc21 (centres unmarked) [Compound 5] | 100% |  | 3.89 | 90% | 
C#CCn1c(C(=O)NC(c2ccc(F)c(C(F)(F)F)c2)C(F)(F)F)cc2cc(C(=O)NC3CC3)c(Cl)nc21 (centres unmarked) [Compound 70] | 100% | 100% | 3.55 |  | 
C#CCn1c(C(=O)NC(c2cc(Cl)c(F)c(Cl)c2)C(F)(F)F)cc2cc(C(=O)NC3CC3)c(Cl)nc21 (centres unmarked) [Compound 68] | 100% | 100% | 3.85 |  | 
C#CCn1c(C(=O)NC(c2cc(Cl)c(F)c(Cl)c2F)C(F)(F)F)cc2cc(C(=O)NC3CC3)c(Cl)nc21 (centres unmarked) [Compound 69] | 100% | 100% | 4.01 |  | 
CCn1c(C(=O)NC(c2cccc(C(F)(F)F)c2)C(F)(F)F)cc2cc(C(=O)NC3CC3)c(C(F)(F)F)nc21 (centres unmarked) [Compound 73] | 100% | 100% | 4.00 |  | 
CCn1c(C(=O)NC(c2ccc(F)c(C(F)(F)F)c2)C(F)(F)F)cc2cc(C(=O)NC3(C(N)=S)CC3)c(Cl)nc21 (centres unmarked) [Compound 66] | 100% | 100% | 3.64 | 100% | 
Cn1c(C(=O)NC(c2cccc(C(F)(F)F)c2)C(F)(F)F)cc2cc(C(=O)NC3CC3)c(Cl)cc21 (centres unmarked) [reference compound] |  |  |  |  | percent efficacy (larval mortality) at 0.8 g/ha ([1]; Phaedon cochleariae, 168 h, PHAECO, 0.8 g of ai/ha, 7 d, read-out: % Efficacy dat): 0%; Emax at 4 g/ha ([2]; Spodoptera frugiperda, 168 h, SPODFR, 4 g of ai/ha, 7 d, read-out: % Efficacy dat): 17%; Emax at 4 g/ha ([4]; Tetranychus urticae, 144 h, TETRUR, 4 g of ai/ha, 6 d, read-out: % Efficacy dat): 0%
C#CCn1c(C(=O)NC(c2cccc(C(F)(F)F)c2)C(F)(F)F)cc2cc(C(=O)NC3CCC3)c(Cl)nc21 (centres unmarked) [Compound 25] | 100% |  | 3.79 | 90% | 
CCn1c(C(=O)NC(c2ccc(F)c(Cl)c2)C(F)(F)F)cc2cc(C(=O)NC(C)C)c(Cl)nc21 (centres unmarked) [Compound 17] |  |  | 3.88 | 100% | 
CCn1c(C(=O)NC(c2ccc(F)c(C(F)(F)F)c2)C(F)(F)F)cc2cc(C(=O)NC(C)C)c(Cl)nc21 (centres unmarked) [Compound 50] | 100% |  | 4.08 |  | 
C#CCn1c(C(=O)NC(c2cccc(C(F)(F)F)c2)C(F)(F)F)cc2cc(C(=O)NC3CC3)c(Cl)nc21 (centres unmarked) [Compound 23] | 100% | 100% | 3.45 | 90% | efficacy (laying of fertile eggs) [5]: 100%; efficacy (kill) [7]: 100%
CCn1c(C(=O)NC(c2cccc(C(F)(F)F)c2)C(F)(F)F)cc2cc(C(=O)NC(C)C)c(C)nc21 (centres unmarked) [Compound 4] | 100% |  | 3.74 |  | 
CCn1c(C(=O)NC(c2cccc(C(F)(F)F)c2)C(F)(F)F)cc2cc(C(=O)NC(C)C)c(Cl)nc21 (centres unmarked) [Compound 14] |  |  |  |  | pest or weed control at 100 g/ha ([1]; Phaedon cochleariae, 168 h, 100 g/ha, spray, after 7 days, read-out: efficacy): 100%; percent efficacy (larval mortality) at 20 g/ha ([1]; Phaedon cochleariae, 168 h, PHAECO, 20 g of ai/ha, 7 d, read-out: % Efficacy dat): 100%; chromatographic logP ([3]; reversed-phase HPLC column (C18), read-out: log p): 3.97
